Experimental findings from ChEMBL document CHEMBL1201862, “PubChem BioAssay data set” (2004) are described below.

Some test systems named below: HCC 2998; COLO 205; Malme-3M; SK-OV-3; MDA-N; HCT-116; M14; ACHN; OVCAR-3; OVCAR-4; MDA-MB-435; SF-268; SF-295; RXF 393; PC-3; UACC-62; DU-145; CCRF-CEM; SF-539; HOP-92.
Holding throughout (test): NCI tumour cell line growth inhibition, 48 h

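In this assay, cells in 96-well plates receive the compound at five concentrations for 48 hours. Endpoints are linearly interpolated between the surrounding concentrations. At the GI50, growth is halved.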 The source made the active and inactive calls. Rule as the data show it: active = GI50 up to about 1.1 µM and inactive = higher. Some results are limits rather than exact numbers.

For `CC[N+](C)(CC)CCC(O)(c1ccccc1)c1ccccc1`, the GI50 in the test on HCC 2998, in the test on COLO 205, in the test with Malme-3M, in the test with SK-OV-3, in the test with MDA-N and in the test on HCT-116 was > 100 µM (inactive) each time. Besides, the GI50 with M14, in the test on ACHN, with OVCAR-3, in the test with OVCAR-4, in the test with MDA-MB-435 and in the test with SF-268 was > 100 µM (inactive) throughout. Also, the GI50 in the test on SF-295, in the test on RXF 393, in the test with PC-3, in the test with UACC-62, in the test on DU-145 and in the test on CCRF-CEM was > 100 µM (inactive) throughout.
In the case of `Cc1c(F)c(NC(=O)CN(C)C)c2c(=O)cc(-c3ccc(NC(=O)CN(C)C)c(F)c3)oc2c1F`, the GI50 with HCC 2998 was 0.678 µM (active); with COLO 205, 10.9 µM (inactive); in the test on Malme-3M, 26.3 µM (inactive); in the test on SK-OV-3, 16.8 µM (inactive); in the test on MDA-N it was 16.4 µM (inactive); in the test on HCT-116, 12.9 µM (inactive). Further, the GI50 is 16.3 µM (inactive) with M14; 15.4 µM (inactive) in the test with ACHN; 18.9 µM (inactive) with OVCAR-4; 12.6 µM (inactive) with MDA-MB-435; 16.6 µM (inactive) with SF-268; 15.5 µM (inactive) in the test on SF-295. Also, the GI50 in the test on RXF 393 was 12.8 µM (inactive); in the test on SF-539, 17.3 µM (inactive); with PC-3, 16 µM (inactive); in the test on UACC-62, 19.1 µM (inactive); with DU-145, 13.6 µM (inactive); in the test on CCRF-CEM it was 21.5 µM (inactive).
As to `Cc1ccc2c(c1)C(=O)c1ccc(C)nc1C2=O`, the GI50 was 31.3 µM (inactive) in the test on HCC 2998; 31.9 µM (inactive) in the test with COLO 205; 8.71 µM (inactive) with Malme-3M; > 100 µM (inactive) with SK-OV-3; 16.6 µM (inactive) in the test on MDA-N; 19.1 µM (inactive) in the test with HCT-116. Besides, the GI50 with M14 was 31.8 µM (inactive); with ACHN it was 35.7 µM (inactive); in the test with OVCAR-3 it was 6.19 µM (inactive); with OVCAR-4, 27.7 µM (inactive); in the test on MDA-MB-435 it was 19.3 µM (inactive); in the test with SF-268 it was 34.9 µM (inactive). The GI50 is 24.6 µM (inactive) in the test with SF-295; > 100 µM (inactive) in the test with RXF 393; 23 µM (inactive) in the test on SF-539; 31.8 µM (inactive) with PC-3; 21.9 µM (inactive) in the test on UACC-62; 49.4 µM (inactive) in the test on DU-145. Further, the GI50 in the test with CCRF-CEM is 58.7 µM (inactive).
On to `C=CCN1C(=O)/C(=C\c2cc(C(C)(C)C)c(O)c(C(C)(C)C)c2)NC1=S`, for which the GI50 was 16.9 µM (inactive) in the test with COLO 205; 7.19 µM (inactive) in the test on Malme-3M; 34.1 µM (inactive) with SK-OV-3; 27.4 µM (inactive) with MDA-N; 12.7 µM (inactive) in the test with HCT-116; 26 µM (inactive) with M14. Besides, the GI50 with ACHN was 26.5 µM (inactive); in the test with OVCAR-3, 12.1 µM (inactive); with OVCAR-4 it was 19.3 µM (inactive); with MDA-MB-435, 24 µM (inactive); with SF-268, 36.1 µM (inactive); with HOP-92, 28.9 µM (inactive). Moreover, the GI50 in the test on SF-295 is 21.2 µM (inactive); with SF-539 it was 39.5 µM (inactive); in the test on PC-3, 14.2 µM (inactive); in the test on UACC-62, 15.8 µM (inactive); with DU-145 it was 21.2 µM (inactive); in the test with CCRF-CEM, 0.879 µM (active).
Turning to `O=S(=O)(O)C(c1ccccc1)C(O)c1ccccc1` (configuration not stated), the GI50 in the test with COLO 205, in the test with Malme-3M, in the test with SK-OV-3, with MDA-N, in the test with HCT-116 and in the test on M14 was > 100 µM (inactive) throughout. Besides, the GI50 in the test on ACHN, in the test on OVCAR-3, in the test on OVCAR-4, in the test with MDA-MB-435, with SF-268 and in the test on HOP-92 was > 100 µM (inactive) in each case. In addition, the GI50 with SF-295, in the test on RXF 393, in the test on PC-3, with UACC-62, in the test on DU-145 and with CCRF-CEM was > 100 µM (inactive) in each case.
Turning to `Nc1nc(SCC(=O)c2ccc(Br)cc2)c2nc[nH]c2n1`, the GI50 with COLO 205 was 17 µM (inactive); with Malme-3M, 29.4 µM (inactive); in the test on SK-OV-3, 34.5 µM (inactive); in the test with MDA-N, 34.8 µM (inactive); with HCT-116 it was 31.2 µM (inactive); in the test with M14 it was 40.5 µM (inactive). The GI50 with ACHN was 34 µM (inactive); in the test on OVCAR-3, 32.3 µM (inactive); with OVCAR-4 it was 53.3 µM (inactive); in the test with MDA-MB-435, 35.2 µM (inactive); with SF-268 it was 23 µM (inactive); in the test on HOP-92, 17.3 µM (inactive). For the same molecule, the GI50 with SF-295 was 34.8 µM (inactive); in the test on RXF 393, 41.9 µM (inactive); with PC-3, 34.2 µM (inactive); in the test with UACC-62, 37.7 µM (inactive); in the test with DU-145, 27.5 µM (inactive); in the test with CCRF-CEM it was 6.28 µM (inactive).
As for `COc1ccc(/C=C2\NC(=S)N(CN3CCOCC3)C2=O)cc1`, the GI50 in the test with COLO 205, with Malme-3M, in the test with SK-OV-3, in the test with MDA-N, in the test on HCT-116 and in the test with M14 was > 100 µM (inactive) each time. The GI50 in the test on ACHN, in the test with OVCAR-3, in the test on OVCAR-4, in the test with MDA-MB-435, in the test on SF-268 and with HOP-92 was > 100 µM (inactive) each time. The GI50 in the test with SF-295, in the test with PC-3, with UACC-62, in the test with DU-145 and with CCRF-CEM was > 100 µM (inactive) in each case.
Regarding `Cc1ccc(-n2c(Cn3nnc(-c4cccnc4)n3)nn(C3OC(COC(=O)c4ccccc4)C(OC(=O)c4ccccc4)C3OC(=O)c3ccccc3)c2=S)cc1` (configuration not stated), the GI50 is > 100 µM (inactive) in the test with HCC 2998; > 100 µM (inactive) in the test with COLO 205; 38.4 µM (inactive) in the test with Malme-3M; > 100 µM (inactive) in the test with SK-OV-3; > 100 µM (inactive) in the test on MDA-N; > 100 µM (inactive) in the test with HCT-116. Besides, the GI50 in the test with M14, with ACHN, in the test on OVCAR-3, in the test on OVCAR-4, with MDA-MB-435 and in the test on SF-268 was > 100 µM (inactive) each time. In addition, the GI50 with SF-295, in the test with RXF 393, in the test on SF-539, in the test on PC-3, in the test with UACC-62 and in the test with DU-145 was > 100 µM (inactive) in each case. Further, the GI50 in the test on CCRF-CEM is > 100 µM (inactive).
Turning to `O=C(NCCCCCCO)c1cccc2cc3ccccc3nc12`, the GI50 in the test with COLO 205 was 11.7 µM (inactive); in the test on SK-OV-3, 22.4 µM (inactive); in the test on MDA-N, 3.61 µM (inactive); with HCT-116 it was 17.2 µM (inactive); in the test with ACHN, 16.4 µM (inactive); with OVCAR-3, 19.9 µM (inactive). Also, the GI50 was 18.9 µM (inactive) in the test on OVCAR-4; 21.7 µM (inactive) with MDA-MB-435; 25.8 µM (inactive) in the test on HOP-92; 16.7 µM (inactive) in the test on SF-295; 17.2 µM (inactive) with RXF 393; 16.7 µM (inactive) with SF-539. Besides, the GI50 was 17 µM (inactive) with PC-3, 16.5 µM (inactive) in the test on UACC-62, 17.7 µM (inactive) with DU-145 and 32.3 µM (inactive) in the test on CCRF-CEM.
For the molecule `O=c1c2ccccc2sc2c(CO)ccc(NCCN3CCCCC3)c12`, the GI50 was 1.92 µM (inactive) with COLO 205; 2.24 µM (inactive) in the test with Malme-3M; 3.91 µM (inactive) with SK-OV-3; 3.08 µM (inactive) in the test on MDA-N; 2.38 µM (inactive) in the test with HCT-116; 1.93 µM (inactive) in the test on M14. Also, the GI50 was 2.39 µM (inactive) in the test on ACHN; 2.22 µM (inactive) in the test on OVCAR-3; 2.48 µM (inactive) in the test with OVCAR-4; 2.64 µM (inactive) with MDA-MB-435; 3.32 µM (inactive) in the test on SF-268; 5.83 µM (inactive) in the test on HOP-92. For the same molecule, the GI50 with SF-295 is 3.61 µM (inactive); in the test with RXF 393 it was 2.39 µM (inactive); in the test with SF-539, 5 µM (inactive); in the test with PC-3 it was 4.31 µM (inactive); in the test on UACC-62, 4.33 µM (inactive); in the test with DU-145 it was 2.54 µM (inactive). Besides, in the test with CCRF-CEM, the GI50 is 1.15 µM (inactive).
For `COc1cc(C2SCCCCCCCCCCSC(c3ccc(O)c(OC)c3)SCCCCCCCCCCS2)ccc1O` (configuration not stated), the GI50 with COLO 205 was > 100 µM (inactive); in the test on Malme-3M it was 58.1 µM (inactive); with SK-OV-3, > 100 µM (inactive); in the test on MDA-N, > 100 µM (inactive); in the test on HCT-116 it was > 100 µM (inactive); in the test on M14 it was > 100 µM (inactive). Besides, the GI50 in the test with ACHN is > 100 µM (inactive); with OVCAR-4 it was > 100 µM (inactive); in the test on MDA-MB-435, > 100 µM (inactive); in the test with SF-268, 52.1 µM (inactive); in the test with HOP-92, > 100 µM (inactive); in the test with SF-295, > 100 µM (inactive). Besides, the GI50 with RXF 393 was > 100 µM (inactive); in the test on PC-3, > 100 µM (inactive); in the test with UACC-62, > 100 µM (inactive); with DU-145 it was > 100 µM (inactive); in the test with CCRF-CEM, < 0.01 µM (active).
